How the values were obtained:
LFA-1 = target: T1, LFA-1 (Homo sapiens, UniProt P05107+P20701); test: Flow cytometry of LFA-1 conformations on PHA T cell blasts; format: cell-based
T1 construct: endogenous in cells; host or cells: primary human T cells from healthy donors: PHA-induced T cell blasts, sorted EM and naive CD8 T cells, and NY-ESO-1 TCR-transduced REP T cells
Experimental: Glycolytic switch of human EM CD8 T cells (a) and naïve CD8 T cells (b) subsets upon injection of anti-CD3 Ab only, or anti-CD3 and anti-CD28 Ab, was assessed by metabolic flux analysis in medium containing either 1.2 mM Mg^2+, 0 mM Mg^2+, or medium which was reconstituted from 0 mM to 1.2 mM Mg^2+ immediately prior to activation (0→1.2 mM Mg^2+). (a) Results for human effector memory (EM) and (b) for human naïve CD8 T cells. Glycolytic switch was quantified by subtracting […] measurements. (c) Flow cytometric analysis of surface activation markers on human EM CD8 T cells 24 hours after activation by plate-bound anti-CD3 Ab and soluble anti-CD28 Ab, in 1.2 mM and 0 mM Mg^2+ media, respectively. (d) Abundance of inflammatory cytokines in corresponding EM CD8 T cell culture supernatants, determined by CBA. (e) CD11a (LFA-1) surface expression on human naïve and EM CD8 T cells as well PHA T cell blasts. Flow cytometry-based assessment of total LFA-1 expression assessed by mAb TS2/4 (f), closed conformation of αL by mAb HI111 (g), extended conformation of LFA-1 by mAb Kim127 (h), open head-piece conformation of LFA-1 by mAb m24 (i), phosphorylation of focal adhesion kinase (FAK) […] as well TNF expression (k)±TCR-induced activation in different extracellular Mg^2+ concentrations. (l) Flow cytometry-based assessment of LFA-1 with open-head piece conformation on human EM and naïve CD8 T cells using the open head-piece reporter mAb m24. (m) Assessment of glycolytic switch of EM CD8 T cells. (n) Assessment of glycolytic switch of naïve CD8 T cells. […] Naïve CD8 T cells were activated with in house generated anti-CD3/anti-CD28 coated microbeads. Polybead microspheres ([…], Polyscience […]) were incubated with 1 μg anti-CD3 Ab and 10 μg anti-CD28 Ab. […] Primary human T cells were activated for 24 h and PHA-blasts for 4 h. For evaluation of activation induced LFA-1 head-piece opening, T cells were activated for […] and anti-human CD11a/CD18 (clone m24) was directly added in medium and incubated on ice for 20 min. Cells were then washed twice in FACS Buffer and fixed in 2% PFA, incubated at room temperature for 20 min and washed with FACS Buffer before acquisition. […] For stainings with HI111, the cells were activated for 45 min, fixed with 2% PFA and subsequently stained with HI111 and washed with FACS Buffer before acquisition.

REP T cells = test: FAK phosphorylation and CD107a degranulation of REP T cells co-incubated with T2 target cells; format: cell-based, human; settings: pulsed T2 target cells; presence vs absence of extracellular Mg^2+
Experimental: FIG. 3: Magnesium regulates LFA-1 mediated T cell activation and cytotoxicity as well BiTE- and CAR T-cell functionality. (a) Glycolytic switch of murine WT and LFA-1^−/− CTLs upon injection of anti-CD3/28 Ab in medium containing 1.2 mM Mg^2+ and 0 mM Mg^2+, presented as quantification of summarized data with n=4 mice. (b) Calcium flux in WT and LFA-1^−/− Jurkat T cells stimulated with anti-CD3 Ab in 1.2 mM and 0 mM Mg^2+ medium, respectively. Cells were loaded with Fluo4, and signal intensity as recorded by plate reader, was normalized to unstimulated baseline values. […] Quantified results of n=3 mice with 3 technical replicates each. (d) Caspase-3 activity in EL4 target cells after co-culture with murine WT and LFA-1^−/− CTLs under the conditions as in (c) for 4 hours, in presence of 10 μg/ml PHA. The effector to target cell ratio was 3:1. Results are quantified of n=3 mice with 3 technical replicates each. (e) Representative CD11a (LFA-1) surface expression on human naïve and EM CD8 T cells, PHA T cell blasts and REP T cells, assessed by flow cytometry. Flow cytometry-based assessment of inactivate LFA-1 with bent conformation (f), extended conformation with β2 leg extension (g), LFA-1 with open head-piece (h), phosphorylation of FAK, expression of degranulation marker CD107a (j) on REP T cells after co-incubation with T2 target cells (pulsed with 10^−8 M 9c peptide) in same condition as in (c). The effector to target cell ratio was 1:1. Data is presented as quantified results of n=5 healthy donors (f, g, h), n=3 healthy donors with 2 technical replicates each or n=1 healthy donor with 4 technical replicates (j). […] Data is presented as quantified results of n=1 healthy donor with 4 technical replicates. […] Cytotoxicity is reported as total area under the curve of the fluorescence driven by incorporation of cytotoxic green reagent in dead target cells (green area per μm^2). […] (p) Abundance of IFNγ in cell culture supernatants corresponding to the conditions depicted in (o) at 24 hours was determined by ELISA (n=8, 3 independent experiments). […]

[1] = PHA T cell blasts ±TCR-induced activation, different extracellular Mg^2+ concentrations

T1 sequence (P20701 26-1170): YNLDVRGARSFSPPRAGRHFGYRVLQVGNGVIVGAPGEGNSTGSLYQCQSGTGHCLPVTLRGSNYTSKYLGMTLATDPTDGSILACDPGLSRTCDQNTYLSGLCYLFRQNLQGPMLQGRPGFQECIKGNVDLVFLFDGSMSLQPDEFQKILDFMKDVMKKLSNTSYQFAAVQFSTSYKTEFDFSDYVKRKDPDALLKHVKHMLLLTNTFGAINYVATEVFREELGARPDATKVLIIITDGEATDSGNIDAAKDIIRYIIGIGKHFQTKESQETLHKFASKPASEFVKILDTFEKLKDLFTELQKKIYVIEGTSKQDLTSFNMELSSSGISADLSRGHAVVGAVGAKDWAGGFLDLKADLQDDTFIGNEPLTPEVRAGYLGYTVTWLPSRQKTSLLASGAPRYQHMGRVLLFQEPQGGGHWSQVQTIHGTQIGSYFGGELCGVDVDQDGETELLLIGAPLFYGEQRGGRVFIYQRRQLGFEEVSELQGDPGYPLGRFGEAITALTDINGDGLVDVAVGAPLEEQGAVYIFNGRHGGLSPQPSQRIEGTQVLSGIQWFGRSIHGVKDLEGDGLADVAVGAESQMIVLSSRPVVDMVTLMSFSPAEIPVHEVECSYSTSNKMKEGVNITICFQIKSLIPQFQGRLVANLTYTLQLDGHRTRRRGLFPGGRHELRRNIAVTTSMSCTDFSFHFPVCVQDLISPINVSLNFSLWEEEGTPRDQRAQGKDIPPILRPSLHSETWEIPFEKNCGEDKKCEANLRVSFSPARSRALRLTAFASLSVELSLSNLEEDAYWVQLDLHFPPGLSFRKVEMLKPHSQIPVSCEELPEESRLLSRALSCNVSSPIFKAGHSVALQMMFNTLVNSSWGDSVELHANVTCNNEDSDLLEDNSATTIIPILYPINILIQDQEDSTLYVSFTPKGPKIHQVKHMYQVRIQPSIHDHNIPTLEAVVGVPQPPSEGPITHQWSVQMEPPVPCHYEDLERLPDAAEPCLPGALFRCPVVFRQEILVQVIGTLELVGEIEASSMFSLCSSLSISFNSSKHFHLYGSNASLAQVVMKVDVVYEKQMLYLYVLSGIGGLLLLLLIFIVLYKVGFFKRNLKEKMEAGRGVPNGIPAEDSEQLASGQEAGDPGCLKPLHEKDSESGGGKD
T1 sequence (P05107 23-769): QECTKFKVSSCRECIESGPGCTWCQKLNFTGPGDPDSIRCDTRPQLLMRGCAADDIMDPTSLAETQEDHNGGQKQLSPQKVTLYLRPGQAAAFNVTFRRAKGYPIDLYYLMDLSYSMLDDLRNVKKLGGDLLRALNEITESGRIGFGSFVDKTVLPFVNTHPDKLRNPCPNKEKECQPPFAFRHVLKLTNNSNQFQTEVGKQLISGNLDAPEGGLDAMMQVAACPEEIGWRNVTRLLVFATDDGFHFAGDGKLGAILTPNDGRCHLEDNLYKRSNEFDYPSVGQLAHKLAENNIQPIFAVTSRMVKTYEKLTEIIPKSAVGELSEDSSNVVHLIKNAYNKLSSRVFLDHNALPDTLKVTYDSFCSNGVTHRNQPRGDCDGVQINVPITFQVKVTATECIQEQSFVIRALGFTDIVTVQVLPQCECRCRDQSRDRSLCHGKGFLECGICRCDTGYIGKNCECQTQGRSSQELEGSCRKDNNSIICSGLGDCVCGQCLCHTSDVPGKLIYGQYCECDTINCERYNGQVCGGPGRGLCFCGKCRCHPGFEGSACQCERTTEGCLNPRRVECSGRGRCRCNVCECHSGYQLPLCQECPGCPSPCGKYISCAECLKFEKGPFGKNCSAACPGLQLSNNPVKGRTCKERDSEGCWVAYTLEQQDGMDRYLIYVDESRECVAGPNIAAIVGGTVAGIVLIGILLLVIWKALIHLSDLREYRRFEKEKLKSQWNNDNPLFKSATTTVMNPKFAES

In the case of `[Mg+2]` [Mg^2+, Magnesium], the “Extended conformation of LFA-1 (mAb KIM127)” value (LFA-1; PHA T cell blasts upon T-cell activation, increasing extracellular Mg^2+ concentrations) was “dose-dependent KIM127 signal increase”, the “Inactive/bent LFA-1 conformation (mAb HI111)” value (LFA-1; PHA T cell blasts upon TCR stimulation, decreasing extracellular Mg^2+ concentrations) was “higher levels of inactive LFA-1” and the “Open head-piece conformation of LFA-1 (mAb m24)” value (LFA-1; [1]) was “strongly depending on extracellular Mg^2+ concentration”. For the same compound, the “Total LFA-1 expression (mAb TS2/4 epitope)” value (LFA-1; [1]) was “independent on the extracellular Mg^2+ concentration”, the “LFA-1 activation in unstimulated T cells” value (LFA-1; ±Mg^2+, data not shown) was “did not differ” and the “Degranulation (CD107a) of REP T cells” value (REP T cells) was “significantly increased”. The “FAK phosphorylation in REP T cells” value (REP T cells) was “significantly increased”.

Reference: patent US20240010726A1, “LFA-1 SIGNALLING MEDIATOR FOR USE IN CANCER THERAPY” (Universität Basel, priority 2020, published 2024)
